How the values were obtained:
[1] = molecular target: Cyclin-dependent kinase 2/cyclin E (Homo sapiens, UniProt P24941); assay: In vitro inhibition of human CDK2/cyclin E.; format: protein-complex assay
[2] = molecular target: Cyclin-dependent kinase 1/cyclin B (Homo sapiens, UniProt P06493); assay: Inhibitory concentration against CDK1/cyclin B was determined; format: protein-complex assay
A2780 = assay: Cytotoxic effect in ovarian cancer cell line (A2780); format: functional, cell-based; conditions: Homo sapiens
[3] = molecular target: Cyclin-dependent kinase 4/cyclin D (Homo sapiens, UniProt P11802); assay: Inhibition of CDK4/cyclin D was determined; format: protein-complex assay
[4] = molecular target: Cyclin-dependent kinase 7/ cyclin H (Homo sapiens, UniProt P50613); assay: Inhibition of CDK7/cyclin H; format: protein-complex assay
Cyclin-dependent kinase 7/ cyclin H, sequence (P51946 whole entry): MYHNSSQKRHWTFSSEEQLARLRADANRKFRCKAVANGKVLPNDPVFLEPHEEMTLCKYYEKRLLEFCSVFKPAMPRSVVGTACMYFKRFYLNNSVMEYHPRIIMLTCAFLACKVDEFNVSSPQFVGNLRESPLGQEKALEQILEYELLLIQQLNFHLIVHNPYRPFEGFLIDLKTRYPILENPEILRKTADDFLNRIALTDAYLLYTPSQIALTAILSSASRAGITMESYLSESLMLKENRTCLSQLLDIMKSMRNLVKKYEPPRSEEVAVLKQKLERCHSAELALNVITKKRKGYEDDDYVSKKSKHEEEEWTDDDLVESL
Cyclin-dependent kinase 7/ cyclin H, sequence (P50613 whole entry): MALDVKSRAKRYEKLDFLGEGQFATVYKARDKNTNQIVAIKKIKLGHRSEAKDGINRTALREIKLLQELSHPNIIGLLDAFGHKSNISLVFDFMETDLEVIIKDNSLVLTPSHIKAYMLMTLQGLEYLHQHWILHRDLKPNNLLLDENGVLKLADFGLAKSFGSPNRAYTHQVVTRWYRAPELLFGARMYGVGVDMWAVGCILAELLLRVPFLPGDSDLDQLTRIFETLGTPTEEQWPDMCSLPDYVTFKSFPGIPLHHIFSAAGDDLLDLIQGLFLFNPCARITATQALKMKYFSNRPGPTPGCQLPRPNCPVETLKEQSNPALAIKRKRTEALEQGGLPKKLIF

Protein kinase C (PKC) = assay: Inhibition of PKC; format: protein assay
[5] = molecular target: cAMP-dependent protein kinase (PKA) (Homo sapiens, UniProt P22694+P17612+P22612); assay: Inhibition of PKA; format: protein assay
[6] = molecular target: Tyrosine-protein kinase Lck (Homo sapiens, UniProt P06239); assay: Inhibition of LCK
Tyrosine-protein kinase Lck, sequence (P06239 whole entry): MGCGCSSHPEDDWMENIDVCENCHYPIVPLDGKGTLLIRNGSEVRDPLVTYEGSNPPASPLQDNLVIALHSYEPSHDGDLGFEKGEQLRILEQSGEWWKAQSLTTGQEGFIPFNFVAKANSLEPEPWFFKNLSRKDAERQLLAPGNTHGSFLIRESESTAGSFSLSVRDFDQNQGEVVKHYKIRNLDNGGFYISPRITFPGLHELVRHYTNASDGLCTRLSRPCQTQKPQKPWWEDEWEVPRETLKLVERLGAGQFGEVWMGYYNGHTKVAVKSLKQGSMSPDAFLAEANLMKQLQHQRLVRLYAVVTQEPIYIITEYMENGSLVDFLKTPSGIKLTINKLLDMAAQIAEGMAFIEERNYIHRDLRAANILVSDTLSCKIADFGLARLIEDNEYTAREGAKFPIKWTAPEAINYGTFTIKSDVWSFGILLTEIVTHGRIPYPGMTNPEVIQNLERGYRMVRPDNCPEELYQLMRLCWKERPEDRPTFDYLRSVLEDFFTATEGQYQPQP

Compound	IC50 [1]	IC50 [2]	also measured
O=C(c1ccccc1)c1cnc2[nH]ncc2c1Oc1ccccc1	15000 nM		
CCCCOc1c(Cc2ccccc2)c[nH]c2nncc1-2	> 25000 nM		
CN(C)CCOc1c(C(=O)c2ccccc2)cnc2[nH]ncc12	17000 nM		
O=C(c1ccccc1)c1cnc2[nH]ncc2c1OC1CCCCC1	660 nM	600 nM	
CCn1ncc2c(OCCC(C)C)c(C(=O)c3ccccc3)cnc21	> 25000 nM		
C=C(c1ccccc1)c1c[nH]c2nncc-2c1OCCCC	> 25000 nM		
CCCCOc1c2cnnc-2[nH]cc1C(O)c1ccccc1 (stereo not given)	> 25000 nM		
CCCCSc1c(C(=O)c2ccccc2)cnc2[nH]ncc12	4400 nM		
CCCCN(C)c1c(C(=O)c2ccccc2)cnc2[nH]ncc12	> 25000 nM		
O=C(c1ccccc1)c1cnc2[nH]ncc2c1OCCO	3700 nM		

These reach a lower IC50 [1]. Values come first.

IC50 [1]	IC50 [2]	Compound	also measured
520 nM	310 nM	CCCC(C)Oc1c(C(=O)c2ccccc2)cnc2[nH]ncc12 (stereo not given)	
280 nM	350 nM	O=C(c1ccccc1)c1cnc2[nH]ncc2c1OCc1ccccc1	
240 nM	310 nM	CCCCCOc1c(C(=O)c2ccccc2)cnc2[nH]ncc12	
180 nM	240 nM	CC(C)CCOc1c(C(=O)c2ccccc2)c[nH]c2nncc1-2	IC50 [4]: 1100 nM; IC50 [3]: > 25000 nM; IC50 (Protein kinase C (PKC)): > 50000 nM; IC50 [5]: > 50000 nM; IC50 [6]: > 50000 nM
180 nM	220 nM	CCCOc1c(C(=O)c2ccccc2)cnc2[nH]ncc12	
110 nM	150 nM	CCCCOc1c(C(=O)c2ccccc2)cnc2[nH]ncc12 [SQ-67563]	IC50 (A2780): 5800 nM; IC50 [3]: > 25000 nM

Reference: ChEMBL document CHEMBL1136654, “1H-Pyrazolo[3,4-b]pyridine inhibitors of cyclin-dependent kinases” (Bioorg Med Chem Lett, 2003)
